Measurements from the NIST ThermoML archive (doi:10.1021/je500886a).

Test: mn = molality of the nth substance listed, in mol/kg
Settings: 101 kPa, Liquid

O=C[C@@H](O)[C@@H](O)[C@H](O)[C@H](O)CO [D-mannose] + O
Settings	mass density, 288.15 K [kg/m3]	mass density, 298.15 K [kg/m3]	mass density, 308.15 K [kg/m3]	mass density, 318.15 K [kg/m3]	viscosity, 288.15 K [mPa·s]	viscosity, 298.15 K [mPa·s]	viscosity, 308.15 K [mPa·s]	viscosity, 318.15 K [mPa·s]
m1 = 0.0501	–	–	–	–	1.168	0.912	0.735	0.608
m1 = 0.05278	1002.76	1000.64	997.63	993.78	–	–	–	–
m1 = 0.07151	1004.03	1001.9	998.87	995.02	1.181	0.92	0.742	0.613
m1 = 0.09003	1005.28	1003.14	1000.09	996.23	–	–	–	–
m1 = 0.09353	–	–	–	–	1.191	0.929	0.749	–
m1 = 0.1065	1006.39	1004.23	1001.17	997.3	–	–	–	–
m1 = 0.1123	–	–	–	–	1.201	0.936	0.756	0.624
m1 = 0.1277	–	1005.63	1002.56	998.67	–	–	–	–
m1 = 0.1318	–	–	–	–	1.214	0.945	0.761	0.628
m1 = 0.1488	–	–	1003.92	1000.02	–	–	–	–
m1 = 0.1515	–	–	–	–	1.225	0.952	0.766	0.634

OC[C@@H](O)[C@@H](O)[C@H](O)[C@@H](O)CO [D-sorbitol] + O
Settings	mass density, 288.15 K [kg/m3]	mass density, 298.15 K [kg/m3]	mass density, 308.15 K [kg/m3]	mass density, 318.15 K [kg/m3]	viscosity, 288.15 K [mPa·s]	viscosity, 298.15 K [mPa·s]	viscosity, 308.15 K [mPa·s]	viscosity, 318.15 K [mPa·s]
m1 = 0.0479	–	–	–	–	1.169	0.914	0.736	0.609
m1 = 0.05068	1002.38	1000.23	997.2	993.33	–	–	–	–
m1 = 0.06467	–	–	–	–	1.183	0.921	0.742	0.614
m1 = 0.07063	1003.63	1001.46	998.41	994.53	–	–	–	–
m1 = 0.08656	–	–	–	–	1.197	0.932	0.75	0.62
m1 = 0.09024	1004.83	1002.65	999.59	995.7	–	–	–	–
m1 = 0.1057	1005.77	1003.58	1000.51	996.61	–	–	–	–
m1 = 0.106	–	–	–	–	1.21	0.942	0.756	0.624
m1 = 0.1249	–	–	–	–	1.226	0.951	0.765	0.631
m1 = 0.13	1007.24	1005.03	1001.95	998.04	–	–	–	–
m1 = 0.1451	–	–	–	–	1.239	0.959	0.772	0.635
m1 = 0.1465	1008.23	1006.01	1002.93	999	–	–	–	–

OC[C@H]1O[C@@](CO)(O[C@H]2O[C@H](CO)[C@@H](O)[C@H](O)[C@H]2O)[C@@H](O)[C@@H]1O [D-sucrose] + O
Settings	mass density, 288.15 K [kg/m3]	mass density, 298.15 K [kg/m3]	mass density, 308.15 K [kg/m3]	mass density, 318.15 K [kg/m3]	viscosity, 288.15 K [mPa·s]	viscosity, 298.15 K [mPa·s]	viscosity, 308.15 K [mPa·s]	viscosity, 318.15 K [mPa·s]
m1 = 0.0482	1005.4	1003.28	1000.26	996.41	–	–	–	–
m1 = 0.05054	–	–	–	–	1.198	0.934	0.751	0.621
m1 = 0.06821	1007.96	1005.82	1002.79	998.92	–	–	–	–
m1 = 0.06969	–	–	–	–	1.221	0.951	0.766	0.632
m1 = 0.08888	1010.58	1008.42	1005.37	1001.49	–	–	–	–
m1 = 0.09107	–	–	–	–	1.242	0.969	0.78	0.645
m1 = 0.1095	1013.17	1010.99	1007.92	1004.02	–	–	–	–
m1 = 0.1098	–	–	–	–	1.264	0.984	0.793	0.654
m1 = 0.1286	1015.55	1013.35	1010.27	1006.35	–	–	–	–
m1 = 0.1293	–	–	–	–	1.286	1.001	0.805	0.666
m1 = 0.1495	1018.13	1015.9	1012.8	1008.87	–	–	–	–
m1 = 0.1497	–	–	–	–	1.31	1.019	0.819	0.675

O=C[C@H](O)[C@@H](O)[C@H](O)CO [D-xylose] + O
Settings	mass density, 288.15 K [kg/m3]	mass density, 298.15 K [kg/m3]	mass density, 308.15 K [kg/m3]	mass density, 318.15 K [kg/m3]	viscosity, 288.15 K [mPa·s]	viscosity, 298.15 K [mPa·s]	viscosity, 308.15 K [mPa·s]	viscosity, 318.15 K [mPa·s]
m1 = 0.0491	1001.82	999.72	996.71	992.87	–	–	–	–
m1 = 0.04924	–	–	–	–	1.161	0.904	0.73	0.605
m1 = 0.06784	–	–	–	–	1.167	0.911	0.735	0.609
m1 = 0.07084	1002.99	1000.89	997.87	994.02	–	–	–	–
m1 = 0.08985	1004.02	1001.9	998.88	995.03	–	–	–	–
m1 = 0.09005	–	–	–	–	1.176	0.917	0.74	0.612
m1 = 0.1038	–	–	–	–	1.183	0.921	0.743	0.615
m1 = 0.1144	1005.32	1003.21	1000.16	996.31	–	–	–	–
m1 = 0.1285	–	–	–	–	1.19	0.929	0.749	0.62
m1 = 0.1303	1006.16	1004.04	1000.99	997.13	–	–	–	–
m1 = 0.1485	1007.12	1005	1001.94	998.07	–	–	–	–
m1 = 0.151	–	–	–	–	1.201	0.936	0.754	0.624
